Assay results reported in patent US20220030882A1, “Composition and Method to Remove Parasites From Fish and to Prevent or Treat Infestation or Infection of Parasites on Fish” (priority 2018, published 2022).

How the values were obtained:
[1] = system: salmon lice; set-up: species or system Lepeophteirus salmonis; conditions: in vivo
[2] = cited from earlier work

In the case of COc1cc(CNC(=O)CCCC/C=C/C(C)C)ccc1O [capsaicin], the “effect on the lice” value [1] is given as “has an effect”, the “sum of the effects on lice of each agent on its own versus the combination of capsaicin and acetic acid” value [1] is given as “considerably lower” and the “solubility in ethanol and other hydrophobic solvents” value ([2]; pure capsaicin) is given as “soluble”. The solubility in water ([2]; water) was “not soluble”.
